Experimental data as given in patent publication US7138361B2, “Herbicidal heterocycles” (E. I. du Pont de Nemours and Company, priority 2000, dated 2006).

Columns and labels:
Format in all cases: in vivo
Nightshade [1] = test: Test C preemergence; details: Rate 500 g/ha, visual evaluation after 12 to 14 days
rice (Oryza saliva) = test: Test C flooded paddy test; details: for Plant response rating, Rice: scale 0 to 100 (0 no effect, 100 complete control)
Procedure, shortened: (§1)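 Greenhouse-maintained for 12 to 14 days after treatment, the paddy plants (2-leaf stage at application) were scored visually against controls. A score of 0 denotes no effect and a score of 100 denotes complete control.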

[2] = test system: duck salad (Heteranthera limosa); test: Test C flooded paddy test; details: for Plant response rating, Ducksalad: scale 0 to 100 (0 no effect, 100 complete control)
Procedure, shortened: as §1

[3] = test system: smallflower flatsedge (Cyperus difformis); test: Test C flooded paddy test; details: for Plant response rating, Flatsedge: scale 0 to 100 (0 no effect, 100 complete control)
Procedure, shortened: as §1

[4] = test system: barnyardgrass (Echinochloa crus-galli); test: Test C flooded paddy test; details: for Plant response rating, Barnyardgrass: scale 0 to 100 (0 no effect, 100 complete control)
Procedure, shortened: as §1

[5] = test system: bermudagrass (Cynodon dactylon); test: Test C preemergence
Procedure, shortened: (§2)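 Compounds in non-phytotoxic solvent with surfactant applied preemergence to planted seeds and postemergence to plants at 1- to 4-leaf stage (2–18 cm). Kept in greenhouse 12–14 days, then visually rated against controls on a 0 (no effect) to 100 (complete control) scale.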

[6] = test system: johnsongrass (Sorghum halepense); test: Test C preemergence
Procedure, shortened: as §2

[7] = test system: yellow nutsedge (Cyperus esculentus); test: Test C preemergence; details: preemergence
Procedure, shortened: as §2

[8] = test system: crabgrass (Digitaria sanguinalis); test: Test C preemergence
Procedure, shortened: as §2

[9] = test system: goosegrass (Eleusine indica); test: Test C preemergence
Procedure, shortened: as §2

[10] = test system: Surinam grass (Brachiaria decumbens); test: Test C preemergence
Procedure, shortened: as §2

[11] = test system: morningglory (Ipomoea hederacea); test: Test C preemergence
Procedure, shortened: as §2

Sunflower = test: Test C preemergence; details: Rate 125 g/ha; scale 0 to 100, 0 no effect, 100 complete control
[12] = test system: woolly cupgrass (Eriochloa villosa); test: Test C preemergence
Procedure, shortened: as §2

Nightshade [13] = test: Test C preemergence
corn (Zea mays) = test: Test C preemergence; details: preemergence
Procedure, shortened: as §2

[14] = test system: common ragweed (Ambrosia elatior); test: Test C preemergence
Procedure, shortened: as §2

kochia (Kochia scoparia) = test: Test C preemergence
Procedure, shortened: as §2

[15] = test system: pigweed (Amaranthus retroflexus); test: Test C preemergence
Procedure, shortened: as §2

[16] = test system: cocklebur (Xanthium strumarium); test: Test C preemergence
Procedure, shortened: as §2

[17] = test system: velvetleaf (Abutilon theophrasti); test: Test C preemergence
Procedure, shortened: as §2

soybean (Glycine max) = test: Test C preemergence
Procedure, shortened: as §2

[18] = test system: giant foxtail (Setaria faberii); test: Test C preemergence
Procedure, shortened: as §2

[19] = Flooded Paddy, Rate 500 g/ha, scale 0 to 100, 0 no effect, 100 complete control
[20] = flooded paddy test, Rate 125 g/ha
[21] = flooded paddy test, Rate 250 g/ha
[22] = flooded paddy test, Rate 62 g/ha, visually evaluated after 12 to 14 days, 0 = no effect, 100 = complete control
[23] = Rate 125 g/ha, scale 0 to 100, 0 no effect, 100 complete control
[24] = preemergence, Rate 62 g/ha, scale 0 to 100
[25] = preemergence, Rate 500 g/ha, visual evaluation after 12 to 14 days
[26] = preemergence, Rate 250 g/ha, scale 0 to 100, 0 no effect, 100 complete control
[27] = Rate 500 g/ha, visual evaluation after 12 to 14 days
[28] = Rate 250 g/ha, scale 0 to 100, 0 no effect, 100 complete control

SMILES: CC(C)(C)c1ccn(C2OCN(c3cccc(OC(F)F)c3)C2=O)n1 (centres unmarked) [Compound 133]
- Plant response rating (0 to 100), Nightshade (Nightshade [1]): 90
- Rice plant response rating (rice (Oryza saliva); [19]): 90
- Plant response rating, Rice (rice (Oryza saliva); [20]): 70
- Plant response rating, Rice (rice (Oryza saliva); [21]): 90
- Plant response rating (scale 0 to 100), Rice (rice (Oryza saliva); [22]): 60
- Ducksalad plant response rating [2, 19]: 100
- Plant response rating, Ducksalad [2, 20]: 100
- Plant response rating, Ducksalad [2, 21]: 100
- Plant response rating (scale 0 to 100), Ducksalad [2, 22]: 50
- Flatsedge plant response rating [3, 19]: 100
- Plant response rating, Flatsedge [3, 20]: 100
- Plant response rating, Flatsedge [3, 21]: 100
- Plant response rating (scale 0 to 100), Flatsedge [3, 22]: 100
- Barnyardgrass plant response rating [4, 19]: 100
- Plant response rating, Barnyardgrass [4, 20]: 90
- Plant response rating, Barnyardgrass [4, 21]: 100
- Plant response rating (scale 0 to 100), Barnyardgrass [4, 22]: 90
- Plant response rating, Bermudagrass [5, 23]: 100
- Plant response rating, Bermudagrass [5, 24]: 100
- Plant response rating (0 to 100 where 0 is no effect and 100 is complete control), Bermudagrass [5, 25]: 100
- Plant response rating, Bermudagrass [5, 26]: 100
- Plant response rating, Johnsongrass [6, 23]: 100
- Plant response rating, Johnsongrass [6, 24]: 80
- Plant response rating (0 to 100), Johnsongrass [6, 25]: 100
- Plant response rating, Johnsongrass [6, 26]: 100
- Plant response rating, Nutsedge ([7]; Rate 62 g/ha, scale 0 to 100): 70
- Plant response rating (0 to 100), Nutsedge [7, 27]: 90
- Plant response rating, Nutsedge [7, 28]: 90
- Plant response rating, Crabgrass [8, 23]: 100
- Plant response rating, Crabgrass [8, 24]: 100
- Plant response rating (0 to 100), Crabgrass [8, 25]: 100
- Plant response rating, Crabgrass [8, 26]: 100
- Plant response rating, Goosegrass [9, 23]: 100
- Plant response rating, Goosegrass [9, 24]: 100
- Plant response rating (0 to 100), Goosegrass [9, 25]: 100
- Plant response rating, Goosegrass [9, 26]: 100
- Plant response rating, Surinam grass [10, 23]: 100
- Plant response rating, Surinam grass [10, 24]: 100
- Plant response rating (0 to 100), Surinam grass [10, 25]: 100
- Plant response rating, Surinam grass [10, 26]: 100
- Plant response rating, Morningglory [11, 23]: 0
- Plant response rating, Morningglory [11, 24]: 0
- Plant response rating (0 to 100), Morningglory [11, 25]: 30
- Plant response rating, Morningglory [11, 26]: 20
- Plant response rating, Sunflower (Sunflower): 0
- Plant response rating, Cupgrass, Woolly [12, 23]: 100
- Plant response rating, Cupgrass, Woolly [12, 24]: 100
- Plant response rating (0 to 100), Cupgrass, Woolly [12, 25]: 100
- Plant response rating, Cupgrass, Woolly [12, 26]: 100
- Plant response rating, Nightshade (Nightshade [13]; Rate 62 g/ha, scale 0 to 100): 0
- Plant response rating, Nightshade (Nightshade [13]; [23]): 0
- Plant response rating, Nightshade (Nightshade [13]; [28]): 20
- Plant response rating, Corn (corn (Zea mays); Rate 62 g/ha, scale 0 to 100): 100
- Plant response rating (0 to 100), Corn (corn (Zea mays); [27]): 100
- Plant response rating, Corn (corn (Zea mays); [28]): 100
- Plant response rating, Ragweed, Common [14, 23]: 0
- Plant response rating, Ragweed, Common [14, 24]: 0
- Plant response rating (0 to 100), Ragweed, Common [14, 25]: 0
- Plant response rating, Ragweed, Common [14, 26]: 0
- Plant response rating, Kochia (kochia (Kochia scoparia); [23]): 100
- Plant response rating, Kochia (kochia (Kochia scoparia); [24]): 100
- Plant response rating (0 to 100), Kochia (kochia (Kochia scoparia); [25]): 100
- Plant response rating, Kochia (kochia (Kochia scoparia); [26]): 100
- Plant response rating, Pigweed [15, 23]: 100
- Plant response rating, Pigweed [15, 24]: 50
- Plant response rating (0 to 100), Pigweed [15, 25]: 100
- Plant response rating, Pigweed [15, 26]: 100
- Plant response rating, Cocklebur [16, 23]: 0
- Plant response rating, Cocklebur [16, 24]: 0
- Plant response rating (0 to 100), Cocklebur [16, 25]: 0
- Plant response rating, Cocklebur [16, 26]: 0
- Plant response rating, Velvetleaf [17, 23]: 20
- Plant response rating, Velvetleaf [17, 24]: 0
- Plant response rating (0 to 100), Velvetleaf [17, 25]: 30
- Plant response rating, Velvetleaf [17, 26]: 20
- Plant response rating, Soybean (soybean (Glycine max); [23]): 0
- Plant response rating, Soybean (soybean (Glycine max); [24]): 0
- Plant response rating (0 to 100), Soybean (soybean (Glycine max); [25]): 0
- Plant response rating, Soybean (soybean (Glycine max); [26]): 0
- Plant response rating, Foxtail, Giant [18, 23]: 100
- Plant response rating, Foxtail, Giant [18, 24]: 90
- Plant response rating (0 to 100), Foxtail, Giant [18, 25]: 100
- Plant response rating, Foxtail, Giant [18, 26]: 100
